{"source": "patent US20050026836A1", "about": "“Composition for the treatment of damaged tissue” (priority 1999, published 2005)", "key": {"[1]": {"biological_target": "catalytic domain of human MMP-2 (Homo sapiens, UniProt P08253)", "sequence (P08253 with tags, fused parts or gaps DEL222-396 limits assumed)": "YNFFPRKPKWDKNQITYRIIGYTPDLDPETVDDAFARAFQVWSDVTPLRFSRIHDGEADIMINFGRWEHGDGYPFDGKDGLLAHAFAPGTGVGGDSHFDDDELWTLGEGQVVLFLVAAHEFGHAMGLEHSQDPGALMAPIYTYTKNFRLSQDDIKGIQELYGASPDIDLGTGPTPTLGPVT", "assay": "MMP-2 fluorogenic inhibition assay", "type": "biochemical", "conditions": "read-out: Calculated Ki(nM) MMP-2", "protocol": "(§1) All enzymes were pre-activated at 37° C. with aminophenylmercuric acetate (APMA) or trypsin before being made up to the final concentrations used in the assay.\n(§2) For MMP-1, the assay buffer used was 50 mM Tris, 200 mM NaCl, 5 mM CaCl2, 20 μM ZnCl2, 0.05% (w/v) Brij 35, pH 7.5. […] For MMP-13, the assay buffer used was 50 mM Tris, pH 7.5, 200 mM NaCl, 5 mM CaCl2, […] and 0.02% (w/v) Brij 35.\n(§3) MMP-2, MMP-3 and MMP-9 inhibition was assayed by incubating activated catalytic domain of human MMP-2, MMP-3 and MMP-9 at 1 nM in assay buffer with 5 μM substrate Mca-Arg-Pro-Lys-Pro-Tyr-Ala-Nva-Trp-Met-Lys(Dnp)-NH2, and six different concentrations of inhibitor. The incubation was performed at 37° C. for 60 minutes.\n(§4) For MMP-2, the final assay concentrations of inhibitors used were 1000, 800, 600, 400, 200 and 100 nM. For MMP-3, the final assay concentrations of inhibitors used were 5, 4, 3, 2, 1 and 0.5 nM. For MMP-9 and MMP-14, the final assay concentrations of inhibitors used were 5, 4, 3, 2, 1 and 0.5 μM.\nAll assays were carried out in a black 96-well plate with a final volume of 100 μl in each well. Inhibitors were dissolved in dimethylsulphoxide (DMSO) to 1 mM. Solutions were then serially diluted in buffer to give the final concentrations shown. […]"}, "[2]": {"biological_target": "T1, catalytic domain human MMP-1 (Homo sapiens, UniProt P03956)", "T1 construct": "made in house", "T1 sequence (P03956 100-269 limits assumed)": "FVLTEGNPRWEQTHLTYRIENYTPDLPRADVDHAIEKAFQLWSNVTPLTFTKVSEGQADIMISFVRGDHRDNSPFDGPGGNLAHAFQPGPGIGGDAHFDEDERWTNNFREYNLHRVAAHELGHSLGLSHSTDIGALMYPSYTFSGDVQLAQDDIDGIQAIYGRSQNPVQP", "assay": "MMP-1 fluorogenic inhibition assay", "type": "biochemical", "conditions": "* limited by compound solubility; read-out: Calculated Ki(nM) MMP-1", "protocol": "as §1, §2\nThe incubation was performed at 37° C. for 60 minutes.\nas §4\n(§5) All assays were carried out in a black 96-well plate with a final volume of 100 μl in each well. Inhibitors were dissolved in dimethylsulphoxide (DMSO) to 1 mM. Solutions were then serially diluted in buffer to give the final concentrations shown.\n(§6) These were estimated using the following equation: IC50=(Ki*[…], where S is the substrate concentration and Km the Michaelis-Menton coefficient. Serine Protease Assays"}, "MMP-3 [3]": {"biological_target": "T2, MMP-3 (Homo sapiens, UniProt P08254)", "T2 construct": "made in house", "T2 sequence (P08254 100-272 limits assumed)": "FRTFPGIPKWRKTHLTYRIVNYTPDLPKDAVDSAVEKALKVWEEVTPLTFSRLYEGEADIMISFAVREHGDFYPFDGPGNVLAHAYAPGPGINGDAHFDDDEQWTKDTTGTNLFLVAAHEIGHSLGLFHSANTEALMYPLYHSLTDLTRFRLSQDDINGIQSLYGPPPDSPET", "assay": "Reduction of MMP-3-catalysed degradation of KGF-2", "type": "biochemical", "conditions": "MMP-3 / KGF-2, read-out: Percentage inhibition of proteolysis"}, "[4]": {"biological_target": "T3, catalytic domain of human MMP-9 (Homo sapiens, UniProt P14780)", "T3 sequence (P14780 with tags, fused parts or gaps DEL216-390 limits assumed)": "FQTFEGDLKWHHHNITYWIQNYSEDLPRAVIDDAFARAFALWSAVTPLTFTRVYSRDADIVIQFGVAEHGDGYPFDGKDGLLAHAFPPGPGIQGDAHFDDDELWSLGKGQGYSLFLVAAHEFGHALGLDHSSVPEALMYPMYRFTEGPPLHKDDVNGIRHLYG", "assay": "MMP-9 fluorogenic inhibition assay", "type": "biochemical", "conditions": "read-out: Calculated Ki(nM) MMP-9", "protocol": "(§7) All enzymes were pre-activated at 37° C. with aminophenylmercuric acetate (APMA) or trypsin before being made up to the final concentrations used in the assay. MMP-1 (30 nM) was activated with 0.93 mM APMA for 20 minutes, MMP-2 (30 nM) was activated with 1.32 mM APMA for 1 hour, MMP-3 (1010 nM) was activated with 1.81 mM APMA for 3 hours or heat activated at 55° C. for three hours, MMP-9 (100 nM) was activated with 2 mM APMA for 2 hours, human MMP-13 (100 nM) was activated with 2 mM APMA for 2 hours, and MMP-14 (900 nM) was activated with 0.9 ng/ml trypsin for 25 minutes, followed by the addition of 4.5 ng/ml trypsin inhibitor.\nas §2, with “35. For MMP-14, the assay buffer used was 50 mM Tris, 100 mM NaCl, 10 mM CaCl2, 0.25% (w/v) Brij 35, pH 7.5.” for “35.”\nas §3\nas §4, with “The final assay concentrations of inhibitors used in the MMP-1 assays to determine Ki were 50, 40, 30, 20, 10 and 5 μM. For MMP-2,” for “For MMP-2,”\n(§8) All assays were carried out in a black 96-well plate with a final volume of 100 μl in each well. […] For MMP-2, MMP-3, MMP-9 and MMP-14, fluorescence was read every 2 minutes at […] and 393 nm γem for 1 hour using a Fluorostar fluorimeter (BMG) with BIOLISE software. For MMP-1 assays, the filters used were 355 nm γex and 440 nm γem; fluorescence was read every 2 minutes for 1 hour. […]"}, "[5]": {"biological_target": "T4, catalytic domain of human MMP-3 (Homo sapiens, UniProt P08254)", "T4 construct": "made in house", "T4 sequence (P08254 100-272 limits assumed)": "as the sequence (P08254 100-272 limits assumed) above", "assay": "MMP-3 fluorogenic inhibition assay", "type": "biochemical", "protocol": "as §1, §2, §3, §4, §5, §6"}, "[6]": {"biological_target": "T5, catalytic domain human MMP-14 (Homo sapiens, UniProt P50281)", "T5 construct": "made in house", "assay": "MMP-14 fluorogenic inhibition assay", "type": "biochemical", "conditions": "read-out: Calculated Ki(nM) MMP-14", "protocol": "as §7\nas §2, with “35. For MMP-14, the assay buffer used was 50 mM Tris, 100 mM NaCl, 10 mM CaCl2, 0.25% (w/v) Brij 35, pH 7.5.” for “35.”\nMMP-14 inhibition was assayed by incubating activated catalytic domain human MMP-14 at 1 nM in assay buffer with 10 μM Mca-Pro-Leu-Gly-Leu-Dpa-Ala-Arg-NH2 and six concentrations of inhibitor. The incubation was performed at 37° C. for 60 minutes.\nas §4, with “The final assay concentrations of inhibitors used in the MMP-1 assays to determine Ki were 50, 40, 30, 20, 10 and 5 μM. For MMP-2,” for “For MMP-2,”\nas §8, with “well. Inhibitors were dissolved in dimethylsulphoxide (DMSO) to 1 mM.” for “well.”"}, "MMP-13 [7]": {"biological_target": "T6, MMP-13 (Homo sapiens, UniProt P45452)", "T6 construct": "made in house", "assay": "MMP-13 fluorogenic inhibition assay", "type": "biochemical", "conditions": "estimated from IC50; read-out: Calculated Ki(nM) MMP-13", "protocol": "as §1, §2\nAssays were carried out in 96-well microfluor plates. All incubations were performed at 37° C. and fluorescence readings determined at 360 nm γex and 450 nm γem.\nFor the assay, the fluorescence values at time zero were subtracted from those determined at 15 or 20 minutes. The % response was then calculated by comparison to positive controls (enzyme, buffer and substrate in the absence of inhibitor). IC50 values were then determined using FitCurve (Excel Tessella Stats add-in).\nas §6"}, "Plasmin": {"biological_target": "T7, Plasmin (Homo sapiens, UniProt P00747)", "T7 construct": "Human plasmin, 2 mg/vial (Quadratech, 810665) was reconstituted to 1 mg/ml in buffer; purchased Quadratech 810665", "T7 sequence (P00747 581-810 limits assumed)": "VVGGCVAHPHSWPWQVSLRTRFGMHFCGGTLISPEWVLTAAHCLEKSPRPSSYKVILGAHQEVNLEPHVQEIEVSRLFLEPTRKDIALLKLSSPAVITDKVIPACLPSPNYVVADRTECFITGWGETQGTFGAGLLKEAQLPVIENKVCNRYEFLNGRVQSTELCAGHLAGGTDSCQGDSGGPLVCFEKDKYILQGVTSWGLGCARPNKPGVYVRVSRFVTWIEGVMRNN", "T7 sequence (P00747 97-580 partner limits assumed)": "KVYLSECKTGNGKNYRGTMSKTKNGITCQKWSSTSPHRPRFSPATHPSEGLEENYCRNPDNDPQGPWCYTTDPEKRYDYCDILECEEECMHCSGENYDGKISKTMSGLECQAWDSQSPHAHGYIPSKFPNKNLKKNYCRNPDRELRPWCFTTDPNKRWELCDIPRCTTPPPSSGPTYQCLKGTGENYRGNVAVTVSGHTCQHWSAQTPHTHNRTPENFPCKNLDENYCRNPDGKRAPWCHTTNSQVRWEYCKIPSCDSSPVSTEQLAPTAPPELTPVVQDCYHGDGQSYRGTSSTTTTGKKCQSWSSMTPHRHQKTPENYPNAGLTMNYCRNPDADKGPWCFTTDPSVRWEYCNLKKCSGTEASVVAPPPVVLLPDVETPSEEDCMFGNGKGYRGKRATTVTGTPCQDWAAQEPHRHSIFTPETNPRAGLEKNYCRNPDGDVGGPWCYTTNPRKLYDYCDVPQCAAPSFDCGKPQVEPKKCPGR", "assay": "Proteolytic digestion of growth factors by purified plasmin", "type": "biochemical", "set-up": "key: significant (represented as ‘+’); a score from significant (represented as ‘+’) to major (represented as ‘+++’); major (represented as ‘+++’); Reduction of parent growth factor not accompanied by the appearance of degradation products is represented by (+)", "conditions": "37° C., Western blot", "method": "(§9) The extent of proteolysis of the growth factors was assayed by incubating TGF-β2, VEGF, PDGF-BB and KGF-2 with the proteases uPA, plasmin, MMP-3 and MMP-13 in assay buffer (either uPA/plasmin buffer, 50 mM tris-HCl, pH 7.4 or MMP assay buffer, 100 mM Tris, 10 mM NaCl, 10 mM CaCl2, 0.05% (w/v) Brij 35, pH 7.5). […] The growth factors were added to the incubation mixture at a final concentration of 7.9 mg/ml, unless otherwise stated.\n(§10) The effects of uPA were determined by incubation at a typical final concentration of 25 μg/ml (1500 U/ml) with each growth factor. The effects of plasmin were determined at a typical final concentration of 0.1 mg/ml by incubation with the individual growth factors in assay buffer. MMP-3 and -13 were incubated at a typical final concentration of 10 nM with the growth factors in assay buffer. […] All incubations were performed in siliconised tubes (Sigma Aldrich, UK).\n(§11) All assays were carried out at 37° C. and enzymes were pre-incubated for 15 minutes with or without inhibitor as appropriate, prior to addition of growth factors. After the addition of growth factor, the incubation mixtures were divided into aliquots in siliconised tubes for each time point used. Incubations were carried out over a time course typically of 24 hours, unless otherwise stated. […]"}, "MMP-3 [8]": {"biological_target": "T2, MMP-3", "assay": "Proteolytic digestion of growth factors by purified MMP-3", "type": "biochemical", "set-up": "key: significant (represented as ‘+’); a score from significant (represented as ‘+’) to major (represented as ‘+++’); major (represented as ‘+++’); Reduction of parent growth factor not accompanied by the appearance of degradation products is represented by (+)", "conditions": "purified MMP-3, 37° C., Western blot", "method": "as §9, §10, §11"}, "uPA": {"biological_target": "uPA (Homo sapiens, UniProt P00749)", "assay": "Proteolytic digestion of growth factors by purified uPA", "type": "biochemical", "set-up": "High molecular weight human urokinase from urine, 3000 IU/vial (Calbiochem, 672081); purchased Calbiochem 672081; host or cells: human urine; key: significant (represented as ‘+’); a score from significant (represented as ‘+’) to major (represented as ‘+++’); major (represented as ‘+++’); Reduction of parent growth factor not accompanied by the appearance of degradation products is represented by (+)", "conditions": "37° C., Western blot", "method": "as §9, §10, §11"}, "MMP-13 [9]": {"biological_target": "T6, MMP-13", "assay": "Proteolytic digestion of growth factors by purified MMP-13", "type": "biochemical", "set-up": "key: significant (represented as ‘+’); a score from significant (represented as ‘+’) to major (represented as ‘+++’); major (represented as ‘+++’); Reduction of parent growth factor not accompanied by the appearance of degradation products is represented by (+)", "conditions": "purified MMP-13, 37° C., Western blot", "method": "as §9, §10, §11"}, "[10]": {"conditions": "in vivo; cited from earlier work"}}, "data": [{"molecule": "Cc1cc(C2CCN(S(=O)(=O)C(C)(C)C(=O)NO)CC2)ccc1-c1cccc(OCCO)c1", "note": "[compound 9470]", "values": [{"measurement": "Ki", "setting": "[1]", "result": 269, "unit": "nM"}, {"measurement": "Ki", "setting": "[2]", "result": 1780, "unit": "nM"}, {"measurement": "inhibition at 0.01 µM", "setting": "MMP-3 [3]; inhibitor 0.01 μM", "result": 24.5, "unit": "%"}, {"measurement": "inhibition at 0.1 µM", "setting": "MMP-3 [3]; inhibitor 0.1 μM", "result": 64.5, "unit": "%"}, {"measurement": "inhibition at 1 µM", "setting": "MMP-3 [3]; inhibitor 1 μM", "result": 72.2, "unit": "%"}, {"measurement": "inhibition at 10 µM", "setting": "MMP-3 [3]; inhibitor 10 μM", "result": 91.1, "unit": "%"}, {"measurement": "Ki", "setting": "[4]", "result": 406, "unit": "nM"}, {"measurement": "Selectivity among MMPs (in words)", "setting": "[5]; from Ki values of Table 3 (MMP-1, -2, -3, -9, -13, -14)", "result": "selective dual inhibitor of MMP-3 and MMP-13"}, {"measurement": "Ki", "setting": "[5]; read-out: Calculated Ki(nM) MMP-3", "result": 1, "unit": "nM"}, {"measurement": "Ki", "setting": "[6]", "result": 1710, "unit": "nM"}, {"measurement": "Ki", "setting": "MMP-13 [7]", "result": 0.95, "unit": "nM"}]}, {"molecule": "TGF-β2: \"Human recombinant TGF-β2 and KGF-2 were obtained from R&D Systems\"; growth factor", "values": [{"measurement": "Extent of hydrolysis of growth factor by Plasmin", "setting": "Plasmin", "result": "++"}, {"measurement": "Extent of hydrolysis of growth factor by MMP-3", "setting": "MMP-3 [8]", "result": "(+)"}, {"measurement": "Extent of hydrolysis of growth factor by uPA", "setting": "uPA", "result": "+"}, {"measurement": "Extent of hydrolysis of growth factor by MMP-13", "setting": "MMP-13 [9]", "result": "+"}]}, {"molecule": "transforming growth factor β3 [TGFβ3]", "values": [{"measurement": "half life after injection into venous ulcers", "setting": "[10]", "result": "approximately 30 minutes"}]}, {"molecule": "PDGF-BB: \"human recombinant PDGF-BB\" obtained from Sigma; growth factor", "values": [{"measurement": "Extent of hydrolysis of growth factor by Plasmin", "setting": "Plasmin", "result": "+++"}, {"measurement": "Extent of hydrolysis of growth factor by MMP-3", "setting": "MMP-3 [8]", "result": "+"}, {"measurement": "Extent of hydrolysis of growth factor by uPA", "setting": "uPA", "result": "++"}, {"measurement": "Extent of hydrolysis of growth factor by MMP-13", "setting": "MMP-13 [9]", "result": "(+)"}]}]}
